Legend:
EHMT1 = target: T1, EHMT1 (Homo sapiens, UniProt Q9H9B1); experiment: EHMT1 PEP (EHMT1 peptide enzyme assay); assay type: biochemical; details: peptide substrate enzyme assay
T1 sequence (Q9H9B1 1-1298): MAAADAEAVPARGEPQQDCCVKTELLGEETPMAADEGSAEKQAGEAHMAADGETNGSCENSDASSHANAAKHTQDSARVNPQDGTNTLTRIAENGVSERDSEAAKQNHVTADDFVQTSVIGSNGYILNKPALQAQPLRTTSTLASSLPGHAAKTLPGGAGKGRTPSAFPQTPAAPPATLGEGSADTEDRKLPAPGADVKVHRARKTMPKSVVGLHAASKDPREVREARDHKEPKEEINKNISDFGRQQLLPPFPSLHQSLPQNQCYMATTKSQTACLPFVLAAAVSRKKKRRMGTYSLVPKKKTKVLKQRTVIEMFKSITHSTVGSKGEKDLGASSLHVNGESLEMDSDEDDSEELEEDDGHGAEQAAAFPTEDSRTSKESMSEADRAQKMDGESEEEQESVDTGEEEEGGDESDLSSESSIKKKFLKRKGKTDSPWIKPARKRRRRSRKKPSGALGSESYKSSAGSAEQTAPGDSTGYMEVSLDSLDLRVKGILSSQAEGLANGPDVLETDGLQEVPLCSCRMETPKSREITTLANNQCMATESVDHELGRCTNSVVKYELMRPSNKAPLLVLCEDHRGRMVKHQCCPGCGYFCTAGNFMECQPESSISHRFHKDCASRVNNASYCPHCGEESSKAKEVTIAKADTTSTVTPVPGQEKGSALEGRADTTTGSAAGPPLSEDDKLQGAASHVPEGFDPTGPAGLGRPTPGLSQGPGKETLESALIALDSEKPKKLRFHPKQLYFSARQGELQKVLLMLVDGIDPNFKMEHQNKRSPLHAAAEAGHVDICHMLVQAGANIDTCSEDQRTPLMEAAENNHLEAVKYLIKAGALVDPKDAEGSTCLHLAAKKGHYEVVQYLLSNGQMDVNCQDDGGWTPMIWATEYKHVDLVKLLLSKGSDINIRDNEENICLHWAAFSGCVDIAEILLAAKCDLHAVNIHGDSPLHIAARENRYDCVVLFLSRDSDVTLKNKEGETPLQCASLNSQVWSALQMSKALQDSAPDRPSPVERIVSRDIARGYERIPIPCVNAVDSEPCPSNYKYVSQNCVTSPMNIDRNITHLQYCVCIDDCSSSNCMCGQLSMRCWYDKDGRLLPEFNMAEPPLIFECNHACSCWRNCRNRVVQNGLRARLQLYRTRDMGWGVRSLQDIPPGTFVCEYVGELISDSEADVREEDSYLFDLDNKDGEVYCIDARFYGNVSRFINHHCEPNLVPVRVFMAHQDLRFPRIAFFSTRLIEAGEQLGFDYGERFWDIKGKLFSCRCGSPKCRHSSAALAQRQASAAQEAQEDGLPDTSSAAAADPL

[1] = system: H3K9me2 in MDA-MB-231 cells; experiment: MDA-MB-231 H3K9me2 in-cell western assay; assay type: cell-based; details: Homo sapiens, read-out: EHMT2 ICW (IC50 μM)
Excerpt: MDA-MB-231 cell line was purchased from ATCC (Manassas, Va., USA). RPMI/Glutamax medium, Penicillin-Streptomycin, Heat Inactivated Fetal Bovine Serum, and D-PBS were purchased from Life Technologies (Grand Island, N.Y., USA). Odyssey blocking buffer, 800CW goat anti-mouse IgG (H+L) antibody, and Licor Odyssey Infrared Scanner were purchased from Licor Biosciences, Lincoln, Nebr., USA. H3K9me2 mouse monoclonal antibody (Cat #1220) was purchased from Abcam (Cambridge, Mass., USA). 16% Paraformaldehyde was purchased from Electron Microscopy Sciences, Hatfield, Pa., USA). MDA-MB-231 cells were maintained in complete growth medium (RPMI supplemented with 10% v/v heat inactivated fetal bovine serum) and cultured at 37° C. under 5% CO2. UNC0638 was purchased from Sigma-Aldrich (St. Louis, Mo., USA).
General Procedure for MDA-MB-231 HEK9me2 In-Cell Western Assay.
Compound (100 nL) was added directly to 384-well cell plate. MDA-MB-231 cells (ATCC) were seeded in assay medium (RPMI/Glutamax supplemented with 10% v/v heat inactivated fetal bovine serum and 1% Penicillin/Streptomycin, Life Technologies) at a concentration of 3,000 cells per well to a Poly-D-Lysine coated 384-well cell culture plate with 50 μL per well. Plates were incubated at 37° C., 5% CO2 for 48 hours (BD Biosciences 356697). Plates were incubated at room temperature for 30 minutes and then incubated at 37° C., 5% CO2 for additional 48 hours. After the incubation, 50 μL per well of 8% paraformaldehyde (Electron Microscopy Sciences) in PBS was added to the plates and incubated at room temperature for 20 minutes. Plates were transferred to a Biotek 406 plate washer and washed 2 times with 100 μL per well of wash buffer (1×PBS containing 0.3% Triton X-100 (v/v)). Next, 60 μL per well of Odyssey blocking buffer (Licor Biosciences) was added to each plate and incubated for 1 hour at room temperature. Blocking buffer was removed and 20 μL of monoclonal primary antibody α-H3K9me2 (Abcam) diluted 1:800 in Odyssey buffer with 0.1% Tween 20 (v/v) were added and plates were incubated overnight (16 hours) at 4° C. Plates were washed 5 times with 100 μL per well of wash buffer. Next 20 μL per well of secondary antibody was added (1:500 800CW […] anti-mouse IgG (H+L) antibody (Licor Biosciences), 1:1000 DRAQ5 (Cell Signaling Technology) in Odyssey buffer with 0.1% Tween 20 (v/v)) and incubated for 1 hour at room temperature. The plates were washed 5 times with 100 μL per well wash buffer then 2 times with 100 μL per well of water. Plates were allowed to dry at room temperature then imaged on a Licor Odyssey Infrared Scanner (Licor Biosciences) which measured integrated intensity at 700 nm and 800 nm wavelengths. Both 700 and 800 channels were scanned.
% Inhibition Calculation.
First, the ratio for each well was determined by
Each plate included fourteen control wells of DMSO only treatment (Minimum Inhibition) as well as fourteen control wells (background wells) for maximum inhibition treated with control compound UNC0638 (Background wells).
The average of the ratio values for each well was calculated and used to determine the percent inhibition for each test well in the plate. Control compound was serially diluted three-fold in DMSO for a total of 10 test concentrations beginning at 1 μM. Percent inhibition was calculated as: […]
IC50 curves were generated using triplicate wells per concentration of compound. The IC50 is the concentration of compound at which measured methylation is inhibited by 50% as interpolated from the dose response curves. IC50 values were calculated using a non-linear regression (variable slope-four parameter fit model) with by the following formula
where Top is fixed at 100% and Bottom is fixed to 0%, [I]=concentration of inhibitor, IC50=half maximal inhibitory concentration and n=Hill Slope.

Row | IC50 (EHMT1) | IC50 [1] | Structure (SMILES)
1 | < 0.1 µM | 0.1 to 1 µM | CNCc1cnn(-c2cc3c(cc2OC)C2(CCC2)C(NC)=N3)c1 [Compound 187]
2 | 0.1 to 1 µM | 1 to 10 µM | CNc1cc(C)nc(Nc2cnc(OC)c(-n3cc(C4CCCN4)cn3)c2)n1 (centres unmarked) [Compound 188]
3 | 0.1 to 1 µM | > 10 µM | CNc1ccnc(Nc2ccc(OC)c(-n3cc(CNC4CCC4)nn3)c2)n1 [Compound 191]
4 | < 0.1 µM | 0.1 to 1 µM | CNC1=Nc2cc(-n3cc([C@H]4CCCN4)nn3)c(OC)cc2C12CCC2 [Compound 192]
5 | < 0.1 µM | 0.1 to 1 µM | COc1cc2c(cc1-n1cc([C@H]3CCCN3)nn1)N=C(N)C21CCC1 [Compound 193]
6 | < 0.1 µM | 0.1 to 1 µM | COc1cc2c(cc1-n1cc(C3CCCN3)nn1)N=C(N)C21CCC1 (centres unmarked) [Compound 194]
7 | 0.1 to 1 µM | 1 to 10 µM | COc1cc2c(cc1-n1cc([C@@H]3CCCN3)nn1)N=C(N)C21CCC1 [Compound 195]
8 | 0.1 to 1 µM | 1 to 10 µM | CNc1cc(C2CCOCC2)c2cc(OC)c(-n3cc(C4CCCN4)nn3)cc2n1 (centres unmarked) [Compound 196]
9 | < 0.1 µM | 1 to 10 µM | CNc1cc(C)nc(Nc2ccc(OC)c(-c3[nH]c4cnccc4c3F)c2)n1 [Compound 199]
10 | < 0.1 µM | < 0.1 µM | CNc1cc(C)nc(Nc2ccc(OC)c(-c3[nH]c4cnccc4c3C)c2)n1 [Compound 200, N2-(4-methoxy-3-(3-methyl-1H-pyrrolo[2,3-c]pyridin-2-yl)phenyl)-N4,6-dimethylpyrimidine-2,4-diamine]
11 | 1 to 10 µM | > 10 µM | CNc1cc(C)nc(Nc2ccc(OC)c(-c3cc4ncncc4[nH]3)c2)n1 [Compound 201]
12 | < 0.1 µM | 1 to 10 µM | COc1cc2c(cc1-c1cc3ccncc3[nH]1)N=C(N)C21CCC1 [Compound 202]
13 | 1 to 10 µM | > 10 µM | CNc1cc(C)nc(Nc2cnc(OC)c(-c3cc4ccncc4[nH]3)c2)n1 [Compound 204]
14 | 1 to 10 µM | > 10 µM | COc1cc(NC2CCNCC2)ncc1-c1cc2ccncc2[nH]1 [Compound 205]
15 | < 0.1 µM | < 0.1 µM | CNc1cc(C)nc(Nc2ccc(OC)c(-c3cc4[nH]ccc4cn3)c2)n1 [Compound 206, N2-(4-methoxy-3-(1H-pyrrolo[3,2-c]pyridin-6-yl)phenyl)-N4,6-dimethylpyrimidine-2,4-diamine]
16 | < 0.1 µM | 0.1 to 1 µM | CNc1cc(C)nc(Nc2ccc(OC)c(-c3cc4[nH]c(C)cc4cn3)c2)n1 [Compound 207]
17 | 1 to 10 µM | > 10 µM | COc1cc(NC2CCNCC2)ncc1-c1cc2[nH]ccc2cn1 [Compound 208]
18 | 0.1 to 1 µM | > 10 µM | CNc1nc2cc(-c3cc4[nH]ccc4cn3)c(OC)cc2n1C [Compound 209]
19 | < 0.1 µM | 1 to 10 µM | CNc1cc(C)nc(Nc2ccc(OC)c(-c3cc4[nH]cnc4cn3)c2)n1 [Compound 210]

Row | IC50 (EHMT1) | IC50 [1] | Structure (SMILES)
20 | < 0.1 µM | 0.1 to 1 µM | CNc1cc(C)nc(Nc2ccc(OC)c(-n3cc([C@@H]4CCCN4)nn3)c2)n1 [Compound 212, (S)—N2-(4-methoxy-3-(4-(pyrrolidin-2-yl)-1H-1,2,3-triazol-1-yl)phenyl)-N4,6-dimethylpyrimidine-2,4-diamine]
21 | < 0.1 µM | 0.1 to 1 µM | CNc1cc(C)nc(Nc2ccc(OC)c(-n3cc([C@H]4CCCN4)nn3)c2)n1 [Compound 213]
22 | < 0.1 µM | 0.1 to 1 µM | CNC1=Nc2cc(-c3cc4[nH]ccc4cn3)c(OC)cc2C12CCC2 [Compound 214]
23 | < 0.1 µM | 0.1 to 1 µM | CNC1=Nc2cc(-c3cc4ccncc4[nH]3)c(OC)cc2C12CCC2 [Compound 215]
24 | < 0.1 µM | 0.1 to 1 µM | CNC1=Nc2cc(-c3[nH]c4cnccc4c3Cl)c(OC)cc2C12CCC2 [Compound 216]
25 | > 10 µM | 1 to 10 µM | CNc1cc(C)nc(Nc2ccc(OC)c(-c3ccc4c(c3)NC(=O)C4)c2)n1 [Compound 218]
26 | 0.1 to 1 µM | > 10 µM | CNc1cc(C)nc(Nc2ccc(OC)c(-c3cc4c(cn3)CC(=O)N4)c2)n1 [Compound 219]
27 | 1 to 10 µM | > 10 µM | CNc1cc(C)nc(Nc2ccc(OC)c(-c3cc4[nH]ccc4cn3)c2OC)n1 [Compound 220]
28 | < 0.1 µM | 0.1 to 1 µM | CNc1cc(C)nc(Nc2ccc(OC)c(-c3cc4[nH]ccc4cn3)c2F)n1 [Compound 221]
29 | < 0.1 µM | 0.1 to 1 µM | CNCc1cnn(-c2c(OC)ccc(Nc3nc(C)cc(NC)n3)c2OC)c1 [Compound 222]
30 | < 0.1 µM | 0.1 to 1 µM | CNc1cc(C)nc(Nc2ccc(OC)c(-c3cnc4cc[nH]c4c3)c2)n1 [Compound 223]
31 | < 0.1 µM | 1 to 10 µM | CNc1cc(-c2cc(Nc3nc(C)cc(NC)n3)ccc2OC)ncn1 [Compound 225]
32 | < 0.1 µM | 0.1 to 1 µM | CNc1cc(C)nc(Nc2ccc(OC)c(-c3cc4[nH]ccc4nc3C)c2)n1 [Compound 228]
33 | < 0.1 µM | 0.1 to 1 µM | CNc1cc(C)nc(Nc2ccc(OC)c(-c3cc4[nH]cc(F)c4cn3)c2)n1 [Compound 229]
34 | < 0.1 µM | 1 to 10 µM | CNc1cc(-c2cc(Nc3nc(C)cc(NC)n3)ccc2OC)nc(C)n1 [Compound 230]
35 | 1 to 10 µM | > 10 µM | COc1cc(NC2CCNCC2)ccc1-c1cc2[nH]ccc2cn1 [Compound 231]
36 | 1 to 10 µM | 1 to 10 µM | CNc1cc(C)nc(Nc2ccc(OC)c(-c3cc(C4CC4)ncn3)c2)n1 [Compound 232]
37 | 0.1 to 1 µM | 1 to 10 µM | CNc1cc(C)nc(Nc2ccc(OC)c(-c3cc(C4CC4)cnn3)c2)n1 [Compound 233]
